Test results from patent publication US5084082A, “Soybean plants with dominant selectable trait for herbicide resistance” (priority 1990, dated 1992).

What was measured:
W20 = assay: Test C preemergence (soil) sulfonylurea application; assay type: in vivo, soybean; details: 19 days after treatment
Text: (§1) W20, a line homozygous for a dominant sulfonylurea-resistance mutation, was compared to Williams 82 in terms of response to preemergence application of three sulfonylurea herbicides. The experimental unit consisted of a single 18 cm pot filled with soil (Sassafras loamy sand with 0.8% organic matter and pH 6.7) in which 6 seeds of a given soybean line were planted 2 cm deep. After planting, each pot was sprayed (using a conveyor belt spray apparatus to emulate field application) with one of 22 different treatments including a check sprayed with AGWT (90% acetone, 4% glycerol, 4% water, 2% Tween-20), and 21 different herbicide treatments using AGWT as a carrier. The herbicide treatments included 7 different concentrations (Table IX) each of three sulfonyl-ureas: Compound 5, Compound 4, and Compound 1. Each herbicide x line treatment was replicated three times. After herbicide treatment, pots were transferred to a greenhouse and arranged in a randomized complete block design. Nineteen days after treatment, each pot was rated visually for herbicide injury using the scale described previously. For each herbicide, analysis of variance on injury ratings was performed separately. Fisher's least significant difference (LSD) was used to determine the significance of line mean differences at each rate using the 95% level of confidence.

Williams 82 = assay: as above; assay type: in vivo, soybean; details: 19 days after treatment
Text: as §1

[1] = tested on: mutants that have heritable sulfonylurea tolerance; assay: Pilot studies, threshold concentration in hydroponic system; assay type: in vivo, soybean; details: sulfonylurea tolerant mutants, 100 mg/L used to irrigate the hydroponic system
Text: (§2) The same sulfonylurea concentrations would select only highly resistant plants.

wild type soybeans = assay: as above; assay type: in vivo, soybean; details: 100 mg/L used to irrigate the hydroponic system
Text: as §2

ALS of W20 = assay: In vitro ALS activity of leaf tissue in the presence of Compounds 8 and 9; assay type: biochemical, soybean; details: W20, 100 ppb
Text: (§3) At approximately 1 month after transplantation, some of the selections appeared much healthier than others. For example, W4-4, W4-6, W6-1, W6-2, W6-4, W23-10, and W23-11 recovered very well from the seed soak treatment with Compound 8. These plants were suspected of having a higher level of ALS resistance to Compound 8 than did the parental material from which they were derived. The applicant was also interested to see if any of these selections were cross resistant to an imidazolinone herbicide such as Compound 9. To test this hypothesis, leaf tissue of the one-month-old M2 plants was sampled and assayed in vitro for ALS activity in the presence of Compound 8 and Compound 9. The ALS assay procedure was essentially identical to the previously described ALS assay except that the herbicide concentrations tested were 100 ppb Compound 8 and 10 ppm Compound 9. Williams and mutant W20 soybean plants were also assayed as control genotypes for comparison. Williams contains no genes conferring the ALS-based sulfonylurea resistance while W20 is homozygous for a single mutation conferring ALS-based sulfonylurea resistance.
(§4) Acetolactate synthase (ALS) was extracted from leaves of soybean plants growing vegetatively. The leaves were homogenized in 4 volumes of buffer containing 100 mM hepes (pH 7.5), 1 mM sodium pyruvate, 0.5 mM magnesium chloride, 0.5 mM thiamine pyrophosphate, […], 10% glycerol, 5% PVPP, and 0.2% mercaptoethanol. The homogenate was filtered through cheese cloth and centrifuged at 20,000 g for 20 min. ALS was precipitated from the supernatant with ammonium sulfate. The enzyme was collected between 20 and 60% saturation by centrifugation at 20,000 g for 20 min. The pellet was resuspended in buffer containing 100 mM Hepes, 1 mM sodium pyruvate, and 0.5 mM magnesium chloride, and desalted on PD-10 columns (Pharmacia) equilibrated with the same buffer. ALS assays were carried out in a final volume of 0.5 mL at 30° C. The final reaction mixture contained 100 mM Hepes (pH 7.5), 1 mM magnesium chloride, 60 mM sodium pyruvate, 0.4 mM thiaminepyrophosphate, […], and various concentrations of chlorsulfuron. The assays were initiated with the addition of enzyme ([…]) and terminated with the addition of […] of 6N sulfuric acid. The acidified reaction mixture was heated to 60° C. for 15 min, after which 0.5 mL of 0.5% (W/V) creatine and 0.5 mL of 5% (W/V) napthol (freshly prepared in 2.5 N sodium hydroxide) were added. The reaction mixtures were heated for an additional 15 min at 60° C., and the absorbance was read at 525 nm. Data are expressed in terms of % control (minus Compound 1) activity and are the average of two replications. Fisher's least significant difference (LSD) value (at the 95% level of confidence) was calculated for each Compound 1 concentration to determine the significance of genotype mean differences.

ALS of W23-10 = assay: as above; assay type: biochemical, soybean; details: W23-10, 100 ppb
Text: as §3, §4

ALS of W23-11 = assay: as above; assay type: biochemical, soybean; details: W23-11, 100 ppb
Text: as §3, §4

ALS of W4-4 = assay: as above; assay type: biochemical, soybean; details: W4-4, 100 ppb
Text: as §3, §4

ALS of W4-5 = assay: as above; assay type: biochemical, soybean; details: W4-5, 100 ppb
Text: as §3, §4

ALS of W4-6 = assay: as above; assay type: biochemical, soybean; details: W4-6, 100 ppb
Text: as §3, §4

ALS of W6-1 = assay: as above; assay type: biochemical, soybean; details: W6-1, 100 ppb
Text: as §3, §4

ALS of W6-2 = assay: as above; assay type: biochemical, soybean; details: W6-2, 100 ppb
Text: as §3, §4

ALS of W6-4 = assay: as above; assay type: biochemical, soybean; details: W6-4, 100 ppb
Text: as §3, §4

ALS of Williams = assay: as above; assay type: biochemical, soybean; details: 100 ppb
Text: as §3, §4

W20 seedlings = assay: Large-scale hydroponic screening pilot with Compound 8; assay type: in vivo, soybean; details: 300 ppb used to irrigate the hydroponic system
Text: The first screening protocol used was identical to the "Large-Scale Hydroponic Screening System" described previously except for the fact that 300 ppb of Compound 8 was used as the selective agent instead of 100 ppb of Compound 1. […] Rare seedlings developing true leaves became very obvious against the background of inhibited seedlings.

Compound: COc1nc(C)nc(NC(=O)NS(=O)(=O)c2ccccc2Cl)n1 [Compound 1, 2-chloro-N-[[(4-methoxy-6-methyl-1,3,5-triazin-2-yl)amino]carbonyl]benzenesulfonamide]
- % Injury (W20; W20, 0.3 g/ha preemergence): 0%
- % Injury (W20; W20, 1 g/ha preemergence): 0%
- % Injury (W20; W20, 3 g/ha preemergence): 3%
- % Injury (W20; W20, 10 g/ha preemergence): 3%
- % Injury (W20; W20, 30 g/ha preemergence): 18%
- % Injury (W20; W20, 100 g/ha preemergence): 63%
- % Injury (W20; W20, 300 g/ha preemergence): 65%
- % Injury (Williams 82; WM 82, 0.3 g/ha preemergence): 30%
- % Injury (Williams 82; WM 82, 1 g/ha preemergence): 50%
- % Injury (Williams 82; WM 82, 3 g/ha preemergence): 73%
- % Injury (Williams 82; WM 82, 10 g/ha preemergence): 95%
- % Injury (Williams 82; WM 82, 30 g/ha preemergence): 100%
- % Injury (Williams 82; WM 82, 100 g/ha preemergence): 100%
- % Injury (Williams 82; WM 82, 300 g/ha preemergence): 100%
- leaf formation [1]: allow unifoliolate (but not trifoliolate) formation
- leaf and root development (wild type soybeans): consistently stunt or inhibit leaf and root development

Compound: COC(=O)c1cccnc1S(=O)(=O)NC(=O)Nc1nc(OC)cc(OC)n1 [Compound 8, Methyl 2-[[[[(4,6-dimethoxy-2-pyrimidinyl)amino]carbonyl]amino]sulfonyl]-3-pyridinecarboxylate]
- uninhibited ALS activity as % of control (ALS of W20): 10.7 % of control
- uninhibited ALS activity as % of control (ALS of W23-10): 7.9 % of control
- uninhibited ALS activity as % of control (ALS of W23-11): 3.8 % of control
- uninhibited ALS activity as % of control (ALS of W4-4): 37.6 % of control
- uninhibited ALS activity as % of control (ALS of W4-5): 7.1 % of control
- uninhibited ALS activity as % of control (ALS of W4-6): 4.0 % of control
- uninhibited ALS activity as % of control (ALS of W6-1): 8.5 % of control
- uninhibited ALS activity as % of control (ALS of W6-2): 9.7 % of control
- uninhibited ALS activity as % of control (ALS of W6-4): 10.5 % of control
- uninhibited ALS activity as % of control (ALS of Williams): -0.3 % of control
- seedling development (W20 seedlings): would not develop true leaves
